Patent publication US20240252508A1, “Novel glucose uptake inhibitors for use in the treatment of cancer” (NOVELYEAST BV, priority 2021, published 2024)
Entries after “also recorded” stand apart in the source; their conditions may differ. Read-outs that look alike come from different tables or passages of the source.

Key:
tps1Δ cells = test: Zero-trans glucose uptake in tps1Δ yeast cells; format: cell-based, S. cerevisiae; settings: for Ki: Dixon plot analysis
Description: Zero-trans uptake of radioactively labeled [U-^14C]glucose, [U-^14C]fructose or [U-^14C]galactose by S. cerevisiae cells was determined in accordance with previous studies^44,66. Cells were grown on different carbon sources depending on the experiment. For measuring glucose uptake activity in the tps1Δ and tps1Δ hxtA strains (FIG. 1b,c), cells were grown on YP medium containing 3% glycerol (measurement of 10s). Typically, for compound characterization and kinetic studies in wild type and tps1Δ strains, cells were (pre)grown on Complete Synthetic medium supplemented with 2% galactose (measurement of 10s). In the experiments on the influence of hexokinase activity on the sugar uptake rate, the measurement duration was shortened to 5s and cells were always grown on YP medium containing 3% glycerol and 2% ethanol. After harvesting, cells were washed twice with ice-cold 25 mM MES-buffer pH 6, and resuspended in their respective medium without sugar to a final concentration of 45 mg (wet weight)/mL. The amount of added tracer was estimated to give a response close to at least 1000 counts per min in order to adequately counter background noise. Cells were first preincubated for 10 min at 30° C. with the compound to acclimate the cells to the temperature and to allow adequate interaction with the compound prior to uptake. Next, hexose sugar was mixed with the cell suspension, which was then incubated for 5 or 10 s, depending on the experiment, after which the cells were rapidly filtered over a glass microfiber filter (Whatman GF/C) and washed three times with ice-cold dH2O. The loaded filter was transferred to a scintillation vial containing 3 mL liquid scintillation cocktail (Ultima-Flo M, Perkin Elmer) and counted using the Hidex 300 SL. Three blank measurements per strain were typically included to account for background signal, for which the cells were first quenched before adding the radioactive label.

yeast Hxt7 carrier = biological target: T1, yeast Hxt7 carrier (Saccharomyces cerevisiae, UniProt P39004); test: Glucose uptake by Hxt7 expressed in hxt^0 gal2Δ (RE700A) yeast; format: cell-based, S. cerevisiae
T1 construct: HA (C); expressed in transfected cells; host or cells: S. cerevisiae RE700A (hxt0 gal2Δ) in A5; EBY.VW4000 (hxt0 erg4Δ) in A7; plasmid 'pHXT7'
Text: (§1) To assess whether WBC-A could inhibit glucose transport activity of the GLUT carriers, we expressed human GLUT1^V69M and GLUT4^V85M in a hxt^0 gal2Δ (RE700A) and hxt^0 erg4Δ (EBY.VW4000) strain, respectively. These strains are both deficient in glucose uptake due to absence of all active glucose transporters. For functional GLUT expression in yeast, specific mutations had to be introduced in both sequences, whereas for GLUT4, an additional ERG4 gene deletion was required^64,65,66.
(§2) Zero-trans uptake of radioactively labeled [U-^14C]glucose, [U-^14C]fructose or [U-^14C]galactose by S. cerevisiae cells was determined in accordance with previous studies^44,66. Cells were grown on different carbon sources depending on the experiment. For measuring glucose uptake activity in the tps1Δ and tps1Δ hxtA strains (FIG. 1b,c), cells were grown on YP medium containing 3% glycerol (measurement of 10s). Typically, for compound characterization and kinetic studies in wild type and tps1Δ strains, cells were (pre)grown on Complete Synthetic medium supplemented with 2% galactose (measurement of 10s). […] The loaded filter was transferred to a scintillation vial containing 3 mL liquid scintillation cocktail (Ultima-Flo M, Perkin Elmer) and counted using the Hidex 300 SL. […]

yeast Hxt7 = biological target: T2, yeast Hxt7 (Saccharomyces cerevisiae, UniProt P39004); test: Glucose uptake by Hxt7 expressed in hxt^0 erg4Δ (EBY.VW4000) yeast; format: cell-based, S. cerevisiae
T2 construct: HA (C); expressed in transfected cells; host or cells: S. cerevisiae RE700A (hxt0 gal2Δ) in A5; EBY.VW4000 (hxt0 erg4Δ) in A7; plasmid 'pHXT7'
Text: as §1, §2

[1] = system: A549 lung adenocarcinoma cells; test: 2-deoxyglucose uptake in A549 cells; format: cell-based, human
Description: Zero-trans glucose uptake in A549 cells was approximated by measuring the uptake of [1,2-^3H]2-deoxyglucose. For this purpose, A549 cells were pregrown in RPMI medium containing 10 mM glucose in a 24-well plate to a cell density of around 100,000 cells/well. Prior to adding radioactive label, cells were gently washed twice in Krebs-Ringer-HEPES buffer (50 mM HEPES pH 7.4, 137 mM NaCl, 4.7 mM KCl, […], 1.3 mM MgSO4 and 0.1% w/v BSA) at 30° C. to remove any residual sugar. RPMI medium without sugar containing the compound intended for treatment, was added to the cells for 15 min at 37° C. to allow adequate interaction of the cells with the compound.
The uptake measurement was initiated by adding an equal volume of medium containing radiolabeled 2DG. After 3-4 min, medium was aspirated and cells were gently washed three times with ice-cold Krebs-Ringer-HEPES buffer. Cells were lysed by adding 200 μL of ice-cold 0.1 M NaOH solution and incubating the plate for 10 min at 37° C. Cell lysates were transferred to scintillation vials for subsequent scintillation counting. For blank measurements, cells were incubated with 50 μM Cytochalasin B prior to the uptake measurement.

[2] = system: A549 lung adenocarcinoma cells; test: Steady-state glucose consumption and lactate production in A549 cells; format: cell-based, human; settings: 25 μM, 1 mM glucose, 8 h
Description: (§3) The influence of WBC compounds on the steady-state glucose consumption rate was studied in the A549 adenocarcinoma and KMS-12-PE multiple myeloma cell lines. As such, different parameters needed to be optimized depending on whether cells were adherent or in suspension. As such, A549 cells were incubated at 125,000 cells/well in a 24-well plate in 300 μL RPMI medium for 8 h. For the KMS-12-PE cell line, 100,000 cells/well were incubated in 100 μL RPMI medium in a 96-well plate for 8 h. Medium was collected, spun down and HPLC-analyzed for measuring glucose and lactate levels. Metabolite levels were corrected for cell number, which always varied little over the span of 8 h. For every condition, at least 4 technical repeats were included.

[3] = system: KMS-12-PE multiple myeloma cells; test: Steady-state glucose consumption and lactate production in KMS-12-PE cells; format: cell-based, human; settings: 25 μM, 1 mM glucose, 8 h
Description: as §3

[4] = Warbicin toxicity and tolerability in mice; format: in vivo, NMRI-nu mice
Description: Warbicin in vivo toxicity and tolerability was examined by subjecting NMRI-nu mice to daily intraperitoneal injection of either WBC-A, WBC-15C, WBC-4C or WBC-11C. Compounds were dosed at either 5 mg/kg, 10 mg/kg or 20 mg/kg over a period of 20 days. Three mice were used per condition. To evaluate toxicity, change in body weight was registered daily. As a humane endpoint, mice that lost more than 20% of their original body weight were prematurely sacrificed. An optimal dissolve strategy was developed to administer WBC compounds by intraperitoneal injection. Due to their considerable hydrophobicity, compounds were dissolved in a sterilized 1×PBS, 5% DMSO and 5% Tween-80 solution. For WBC-A, -15C and -4C, this gives an initial clear solution that gradually changes over time into a homogenous suspension which can still be administered in a reproducible way. For WBC-11C it immediately results in a homogenous suspension.

T1 sequence (P39004 whole entry): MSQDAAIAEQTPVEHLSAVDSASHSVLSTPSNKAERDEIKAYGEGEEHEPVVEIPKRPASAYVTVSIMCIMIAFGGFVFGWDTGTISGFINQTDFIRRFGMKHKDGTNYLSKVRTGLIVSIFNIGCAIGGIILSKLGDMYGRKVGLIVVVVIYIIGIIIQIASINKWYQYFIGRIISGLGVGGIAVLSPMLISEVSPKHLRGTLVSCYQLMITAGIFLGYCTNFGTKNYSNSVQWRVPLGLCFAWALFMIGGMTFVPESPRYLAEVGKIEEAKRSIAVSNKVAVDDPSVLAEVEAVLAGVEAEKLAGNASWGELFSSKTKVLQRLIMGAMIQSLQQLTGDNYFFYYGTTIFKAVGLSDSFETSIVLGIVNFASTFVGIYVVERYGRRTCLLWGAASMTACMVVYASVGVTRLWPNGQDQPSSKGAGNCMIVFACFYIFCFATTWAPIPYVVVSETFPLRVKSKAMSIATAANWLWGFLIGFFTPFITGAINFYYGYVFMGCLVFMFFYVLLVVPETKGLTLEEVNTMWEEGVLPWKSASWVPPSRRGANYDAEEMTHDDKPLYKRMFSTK
T2 sequence (P39004 whole entry): as above

For `Cc1nc(Sc2nnc3n2CCCCC3)c2c(-c3cccs3)csc2n1` [WBC-A], the Ki (tps1Δ cells) was 8.35 µM, the Ki (tps1Δ cells; printed K′, read-out: K′i, glucose uptake, tps1Δ cells) was 35.4 µM and the “Type of inhibition of glucose uptake, tps1Δ cells” value (tps1Δ cells; Lineweaver-Burk plot analysis) was “mixed type”. The IC50 (yeast Hxt7 carrier) was 51 µM, the “Inhibition of glucose uptake by Hxt7 at 25 μM” value (yeast Hxt7 carrier; 25 μM, 2.5 mM glucose, hxt^0 gal2Δ strain) was “inhibited” and the IC50 (yeast Hxt7) was 12.9 µM. The Ki ([1]; Dixon plot analysis, read-out: Ki (=K′i), 2-deoxyglucose uptake in A549 cells) was 52.8 µM, the “Type of inhibition of 2-deoxyglucose uptake in A549 cells” value ([1]; Lineweaver-Burk plot analysis) was “noncompetitive” and the “Glucose consumption and lactate production in A549 cells” value [2] was “did not cause inhibition”. The “Glucose consumption and lactate production in KMS-12-PE cells” value [3] was “did not cause inhibition”, the “Other abnormalities at autopsy” value ([4]; daily i.p. 5, 10, 20 mg/kg, 20 days) was “No other abnormalities” and the “Loss in body weight over 20 days” value ([4]; daily i.p. 5, 10 and 20 mg/kg, nude mice) was “no significant loss in body weight; also recorded: No significant difference”. The “AST/ALT ratio vs vehicle” value ([4]; sera after 20 days, 5, 10, 20 mg/kg i.p.) was “No significant difference” and the “Blood glucose level vs vehicle” value ([4]; sera post mortem after 20 days, 5, 10, 20 mg/kg i.p.) was “No significant difference”.
